The source of these data is patent US6864086B2, “Nitric oxide-scavenging system for culturing oocytes, embryos, or other cells” (Board of Supervisors of Louisiana State University and …, priority 1998, dated 2005).

The assay concerns bovine embryos co-cultured with granulosa cells. Nature of the assay: Example 4: Hb (1 or 10 μg/ml) added to mBECM-C, embryos co-cultured with granulosa cells. Format: cell-based. The protocol:
mBECM containing 10 μM β-mercaptoethanol was used to culture embryos, as described in J. Lim et al., “Roles of growth factors in the development of bovine embryos fertilized in vitro and cultured singly in a defined medium,” Reprod. Fertil. Dev., 8, 1199-1205 (1996). To culture individual 8-cell embryos we used mBECM supplemented with 1 ng/ml platelet derived growth factor type AB (PDGF; Upstate Biotechnology Inc., Lake Placid, N.Y.), 1 ng/ml transforming growth factor-β (TGF; R & D System, Minneapolis, Minn.), 50 ng/ml arachidonic acid (AA; Cayman Chemical Co., Ann Arbor, Mich.), 100 μM glutathione (GSH; Sigma Co.) and 1 mg/ml polyvinyl alcohol (PVA) (mBECM-S). mBECM to which 10% (v/v) FBS was added (mBECM-C) was used for co-culturing inseminated zygotes with CGs and for producing 8-cell embryos. Osmolarity of the medium was maintained within the range of 265-290 mOsm.
The bovine cumulus-oocyte complexes (COCs) used were collected in Madison, Wis. (BOMED, Inc.), and were shipped in 2-ml of maturation medium in a battery powered incubator via overnight express mail service. Oocytes matured during transit and arrived within 24 h after exposure to maturation medium, pre-equilibrated at 39° C. in 5% CO2 in air. At 22-24 h after exposure to the medium, the COCs were inseminated in vitro as described in J. Lim et al., “Intracytoplasmic glutathione concentration and the role of β-mercaptoethanol in preimplantation development of bovine embryos,” Theriogenology, 46, 429-439 (1996). At 18 h post-insemination, COCs were cultured in groups (30-35 embryos) in a 4-well multidish (Nunc, Roskilde, Denmark) containing 0.8-ml of mBECM-C. Embryos were dislodged from CGs at 36-48 h post-insemination.
In Example 1, embryos (83-85 per group) collected 18 h post-insemination were cultured in mBECM-C, to which 0, 0.008, or 0.04 mM SNP was added at 18 or 60 h post-insemination. In Example 2, 8-cell embryos (80 per group) were produced in a co-culture system containing CGs and mBECM-C, and then beginning at 60 h post-insemination were cultured singly in a defined culture medium (mBECM-S), to which 0, 0.0016, 0.008, or 0.04 mM of SNP (S-0501, Sigma Co.) was added. In Example 3 embryos, either uncleaved (n=99) or developed to the 2-cell stage (90), were collected 48 h post-insemination; and cleaved embryos, either developed to the morula stage (69) or degenerate (63) were collected 144 h post-insemination. NO metabolites were then measured in the embryos. In Example 4, three groups of 95 zygotes each were co-cultured with CGs in mBECM-C, to which 0, 1, or 10 μg/ml Hb (bovine, mainly methemoglobin, H-2500, Sigma Co.) was added. […] Inseminated oocytes (104 per group) were co-cultured with CGs in MBECM-C up to 192 h post-insemination; and Hb (1 μg/ml) was added to the medium at 18, 60, or 144 h post-insemination. In Example 6, inseminated oocytes (93 per group) were cultured in the presence or absence of CGs in mBECM-C to which either 0 or 1 μg/ml Hb was added. In Example 7, 8-cell embryos (100 per group), obtained after culture in mBECM-C supplemented with Hb (1 μg/ml), were cultured singly in mBECM-S, with or without Hb.
Oocytes or 8-cell embryos were randomly and equally allocated to each treatment group. In Examples 1, 2, and 4-7, oocytes or embryos that had developed to the 2-cell, 8-cell, >8-cell, 16-cell morula, and blastocyst stages were individually scored ‘1’ (developed) at 48, 60, 96, 120, 144 and 192 h post-insemination, respectively. […] Sums of the scores in each stage of development were evaluated by analysis of variance (ANOVA) using the general linear model (PROC-GLM) in the SAS program software. In Example 3, concentrations of NO metabolites in embryos were subjected to ANOVA. […] Differences were regarded as statistically significant where P values were less than 0.05.

Values joined by “and” are separate entries in the source; they are usually repeats but may differ in a detail not shown here. Equal values may be shown once.

Turning to hemoglobin [Hb], under “Hb 1 μg/ml in mBECM-C”, the “Percent of Embryos Developed to 2-cell” value worked out at 81%; the “Percent of Embryos Developed to 16-cell” value is listed as 52%; the “Percent of Embryos Developed to >8-cell” value was 60%; the “Percent of Embryos Developed to Blastocyst” value was 34% and 34^b %. Moreover, under “Hb 1 μg/ml in mBECM-C”, the “Percent of Embryos Developed to Morula” value was 46%. For the same substance, for the setting “Hb 10 μg/ml in mBECM-C”, the “Percent of Embryos Developed to 2-cell” value was determined as 78%; the “Percent of Embryos Developed to 16-cell” value was found to be 43%; the “Percent of Embryos Developed to >8-cell” value worked out at 53%; the “Percent of Embryos Developed to Blastocyst” value was 27% and 27^ab %. In addition, the “Percent of Embryos Developed to Morula” value (Hb 10 μg/ml in mBECM-C) turned out to be 41%.
